Patent US10947252B2, “Inhibitors of KEAP1-Nrf2 protein-protein interaction” (Janssen Pharmaceutica NV, priority 2018, dated 2021)

What was measured:
[1] = molecular target: Kelch domain of human KEAP1 (321-624 aa) (Homo sapiens (Human), UniProt Q14145); assay: KEAP1 KELCH ThermoFluor binding assay; conditions: KEAP Kelch […], 1,8-ANS, pH 7.0, average of results obtained, read-out: Tf Kd;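 further: Ligand-induced melting temperature shift of E. coli-expressed KEAP1 Kelch protein, Kd estimated from concentration-response curves of ΔTm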
Kelch domain of human KEAP1 (321-624 aa), sequence (Q14145 321-624): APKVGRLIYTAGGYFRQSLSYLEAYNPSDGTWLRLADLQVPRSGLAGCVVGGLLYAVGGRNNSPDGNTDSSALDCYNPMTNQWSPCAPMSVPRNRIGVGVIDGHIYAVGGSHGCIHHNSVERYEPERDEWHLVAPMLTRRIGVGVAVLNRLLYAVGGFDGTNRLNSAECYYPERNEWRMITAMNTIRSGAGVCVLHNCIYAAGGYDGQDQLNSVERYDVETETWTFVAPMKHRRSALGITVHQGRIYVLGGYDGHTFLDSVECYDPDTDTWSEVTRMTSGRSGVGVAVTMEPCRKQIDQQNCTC

[2] = tested on: Glo-Response ARE-luc2P HEK293 cell line; assay: ARE luciferase reporter cell-based assay; conditions: Homo sapiens, HEK293, 24 h, average of results obtained;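 further: luciferase signal tracks Nrf2 activation of the ARE once compounds disrupt KEAP1-Nrf2 binding, read with One-Glo reagent, DMSO serving as low control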

Cc1ccc([C@@H](c2ccn3c(C(F)F)nnc3c2C)C(C)(C)C(=O)O)nc1CN1CC2(CC2)Oc2nc(OCCN3CCCC3)c(C)cc2S1(=O)=O (single isomer, unassigned) [Example 358, (*S)-3-(3-(Difluoromethyl)-8-methyl-[1,2,4]triazolo[4,3-a]pyridin-7-yl)-2,2-dimethyl-3-(5-methyl-6-((8′-methyl-1′,1′-dioxido-7′-(2-(pyrrolidin-1-yl)ethoxy)spiro[cyclopropane-1,4′-pyrido[2,3-b][1,4,5]oxathiazepin]-2′(3′H)-yl)methyl)pyridin-2-yl)propanoic Acid]
Kd [1]: 4460 nM | EC50 [2]: 23.3 nM

Cc1cnc2c(c1)S(=O)(=O)N(Cc1cc(C(c3ccn4c(C(F)F)nnc4c3C)C(C)(C)C(=O)O)ccc1C)CC1(CCOCC1)O2 (racemic) [Example 575, (R/S)-3-(3-(Difluoromethyl)-8-methyl-[1,2,4]triazolo[4,3-a]pyridin-7-yl)-2,2-dimethyl-3-(4-methyl-3-((8′-methyl-1′,1′-dioxido-2,3,5,6-tetrahydrospiro[pyran-4,4′-pyrido[2,3-b][1,4,5]oxathiazepin]-2′(3′H)-yl)methyl)phenyl)propanoic Acid]
Kd [1]: < 1 nM | EC50 [2]: 6.62 nM

Cc1ccc([C@H](c2ccn3c(C(F)(F)F)nnc3c2C)C(C)(C)C(=O)O)cc1CN1CC2(CCOCC2)Oc2nc(OCCN3CCC(F)(F)CC3)ccc2S1(=O)=O (single isomer, unassigned) [Example 360, (*R)-3-(3-((7′-(2-(4,4-Difluoropiperidin-1-yl)ethoxy)-1′,1′-dioxido-2,3,5,6-tetrahydrospiro[pyran-4,4′-pyrido[2,3-b][1,4,5]oxathiazepin]-2′(3′H)-yl)methyl)-4-methylphenyl)-2,2-dimethyl-3-(8-methyl-3-(trifluoromethyl)-[1,2,4]triazolo[4,3-a][pyridine-7-yl)propanoic Acid]
Kd [1]: < 1 nM | EC50 [2]: 9.3 nM

Cc1cnc2c(c1)S(=O)(=O)N(Cc1cc([C@@H](c3ccn4c(C(F)(F)F)nnc4c3C)C(C)(C)C(=O)O)ncc1C)CC1(CC1)O2 (single isomer, unassigned) [Example 588, (*S)-2,2-Dimethyl-3-(8-methyl-3-(trifluoromethyl)-[1,2,4]triazolo[4,3-a]pyridin-7-yl)-3-(5-methyl-4-((8′-methyl-1′,1′-dioxidospiro[cyclopropane-1,4′-pyrido[2,3-b][1,4,5]oxathiazepin]-2′(3′H)-yl)methyl)pyridin-2-yl)propanoic Acid]
Kd [1]: < 1 nM | EC50 [2]: 7.64 nM

Cc1cc2cc([C@H](CC(=O)O)c3ccc(C)c(CN4C[C@@H]5CCCCN5c5ncccc5S4(=O)=O)c3)n(C)c2nn1 (single isomer, unassigned) [Example 442, (*R)-3-(3,7-Dimethyl-7H-pyrrolo[2,3-c]pyridazin-6-yl)-3-(3-(((*S)-5,5-dioxido-7,7a,8,9,10,11-hexahydro-6H-dipyrido[2,1-d:2′,3′-f][1,2,5]thiadiazepin-6-yl)methyl)-4-methylphenyl)propanoic Acid]
Kd [1]: < 1 nM | EC50 [2]: 553 nM

Cc1cnc2c(c1)S(=O)(=O)N(Cc1cc([C@@H](c3cc4cc(C)nnc4n3C)C(C)(C)C(=O)O)ccc1C)CC1(CC1)O2 (single isomer, unassigned) [Example 330, (*S)-3-(3,7-Dimethyl-7H-pyrrolo[2,3-c]pyridazin-6-yl)-2,2-dimethyl-3-(4-methyl-3-((8′-methyl-1′,1′-dioxidospiro[cyclopropane-1,4′-pyrido[2,3-b][1,4,5]oxathiazepin]-2′(3′H)-yl)methyl)phenyl)propanoic Acid]
Kd [1]: 1590 nM | EC50 [2]: 7520 nM

Cc1ccc([C@@H](CC(=O)O)c2ccn3c(C(F)F)nnc3c2C)cc1CN1C[C@@H]2COCCN2c2ncccc2S1(=O)=O (single isomer, unassigned) [Example 459, (*R)-3-(3-(Difluoromethyl)-8-methyl-[1,2,4]triazolo[4,3-a]pyridin-7-yl)-3-(3-(((*R)-5,5-dioxido-7a,8,10,11-tetrahydro-[1,4]oxazino[3,4-d]pyrido[2,3-f][1,2,5]thiadiazepin-6(7H)-yl)methyl)-4-methylphenyl)propanoic Acid]
Kd [1]: 1.19 nM | EC50 [2]: 203 nM

Cc1ccc([C@H](CC(=O)O)c2ccn3c(C(F)F)nnc3c2C)cc1CN1C[C@@H]2COCCN2c2ncccc2S1(=O)=O (single isomer, unassigned) [Example 458, (*S)-3-(3-(Difluoromethyl)-8-methyl-[1,2,4]triazolo[4,3-a]pyridin-7-yl)-3-(3-(((*R)-5,5-dioxido-7a,8,10,11-tetrahydro-[1,4]oxazino[3,4-d]pyrido[2,3-f][1,2,5]thiadiazepin-6(7H)-yl)methyl)-4-methylphenyl)propanoic Acid]
Kd [1]: < 1 nM | EC50 [2]: 276 nM

Cc1ccc([C@@H](CC(=O)O)c2ccc3c(nnn3CC3CC3)c2C)cc1CN1C[C@H]2CCCCN2c2ncccc2S1(=O)=O (single isomer, unassigned) [Example 235, (*R)-3-(1-(Cyclopropylmethyl)-4-methyl-1H-benzo[d][1,2,3]triazol-5-yl)-3-(3-(((*R)-5,5-dioxido-7,7a,8,9,10,11-hexahydro-6H-dipyrido[2,1-d:2′,3′-f][1,2,5]thiadiazepin-6-yl)methyl)-4-methylphenyl)propanoic Acid]
Kd [1]: < 1 nM | EC50 [2]: 1.9 nM

Cc1cnc2c(c1)S(=O)(=O)N(Cc1nc([C@H](c3ccn4c(C(F)F)nnc4c3C)C(C)(C)C(=O)O)ccc1C)CC1(CC1)O2 (single isomer, unassigned) [Example 335, (*R)-3-(3-(Difluoromethyl)-8-methyl-[1,2,4]triazolo[4,3-a]pyridin-7-yl)-2,2-dimethyl-3-(5-methyl-6-((8′-methyl-1′,1′-dioxidospiro[cyclopropane-1,4′-pyrido[2,3-b][1,4,5]oxathiazepin]-2′(3′H)-yl)methyl)pyridin-2-yl)propanoic Acid]
Kd [1]: 2440 nM | EC50 [2]: 4620 nM

Cc1cnc2c(c1)S(=O)(=O)N(Cc1nc([C@@H](c3ccn4c(C(F)F)nnc4c3C)C(C)(C)C(=O)O)ccc1C)CC1(COC1)O2 (single isomer, unassigned) [Example 627, (*S)-3-(3-(Difluoromethyl)-8-methyl-[1,2,4]triazolo[4,3-a]pyridin-7-yl)-2,2-dimethyl-3-(5-methyl-6-((8′-methyl-1′,1′-dioxidospiro[oxetane-3,4′-pyrido[2,3-b][1,4,5]oxathiazepin]-2′(3′H)-yl)methyl)pyridin-2-yl)propanoic Acid]
Kd [1]: < 1 nM | EC50 [2]: 1.35 nM

Cc1cnc2c(c1)S(=O)(=O)N(Cc1cc([C@@H](c3ccn4c(C5CC5)nnc4c3C)C(C)(C)C(=O)O)ccc1C)CC1(COC1)O2 (single isomer, unassigned) [Example 622, (*S)-3-(3-Cyclopropyl-8-methyl-[1,2,4]triazolo[4,3-a]pyridin-7-yl)-2,2-dimethyl-3-(4-methyl-3-((8′-methyl-1′,1′-dioxidospiro[oxetane-3,4′-pyrido[2,3-b][1,4,5]oxathiazepin]-2′(3′H)-yl)methyl)phenyl)propanoic Acid]
Kd [1]: 2530 nM | EC50 [2]: 3230 nM

Cc1cnc2c(c1)S(=O)(=O)N(Cc1cc([C@H](c3ccn4c(C(F)F)nnc4c3C)C(C)(C)C(=O)O)ccc1C)CC1(CCOCC1)O2 (single isomer, unassigned) [Example 577, (*R)-3-(3-(Difluoromethyl)-8-methyl-[1,2,4]triazolo[4,3-a]pyridin-7-yl)-2,2-dimethyl-3-(4-methyl-3-((8′-methyl-1′,1′-dioxido-2,3,5,6-tetrahydrospiro[pyran-4,4′-pyrido[2,3-b][1,4,5]oxathiazepin]-2′(3′H)-yl)methyl)phenyl)propanoic Acid]
Kd [1]: 718 nM | EC50 [2]: 768 nM

CC[C@@H]1CN(Cc2cc([C@H](CC(=O)O)c3ccn4c(C(F)(F)F)nnc4c3C)ccc2C)S(=O)(=O)c2cccnc2O1 (single isomer, unassigned) [Example 189, (*S)-3-(3-(((R)-4-Ethyl-1,1-dioxido-3,4-dihydro-2H-pyrido[2,3-b][1,4,5]oxathiazepin-2-yl)methyl)-4-methylphenyl)-3-(8-methyl-3-(trifluoromethyl)-[1,2,4]triazolo[4,3-a]pyridin-7-yl)propanoic Acid]
Kd [1]: < 1 nM | EC50 [2]: 11 nM

Cc1ccc(C(CC(=O)O)c2ccc3c(nnn3CC3CC3)c2C)cc1CN1C[C@@]2(C)CCCN2c2ncccc2S1(=O)=O (stereo in doubt) [Example 80, 3-(1-(Cyclopropylmethyl)-4-methyl-1H-benzo[d][1,2,3]triazol-5-yl)-3-(4-methyl-3-(((*R)-7a-methyl-5,5-dioxido-7a,8,9,10-tetrahydropyrido[2,3-f]pyrrolo[2,1-d][1,2,5]thiadiazepin-6(7H)-yl)methyl)phenyl)propanoic Acid]
Kd [1]: 8 nM | EC50 [2]: 306 nM

Cc1ccc(C(CC(=O)O)c2ccc3c(nnn3C3CC3)c2C)cc1CN1C[C@]2(C)CCCN2c2ncccc2S1(=O)=O (mixture of isomers) [Example 218, (R/S)-3-(1-Cyclopropyl-4-methyl-1H-benzo[d][1,2,3]triazol-5-yl)-3-(4-methyl-3-(((*S)-7a-methyl-5,5-dioxido-7a,8,9,10-tetrahydropyrido[2,3-f]pyrrolo[2,1-d][1,2,5]thiadiazepin-6(7H)-yl)methyl)phenyl)propanoic Acid]
Kd [1]: < 1 nM | EC50 [2]: 6.6 nM

Cc1ccc([C@@H](CC(=O)O)c2ccn3c(C(F)(F)F)nnc3c2C)nc1CN1C[C@@H]2CCCCN2c2ncc(F)cc2S1(=O)=O (single isomer, unassigned) [Example 497, (*S)-3-(6-(((*S)-3-Fluoro-5,5-dioxido-7,7a,8,9,10,11-hexahydro-6H-dipyrido[2,1-d:2′,3′-f][1,2,5]thiadiazepin-6-yl)methyl)-5-methylpyridin-2-yl)-3-(8-methyl-3-(trifluoromethyl)-[1,2,4]triazolo[4,3-a]pyridin-7-yl)propanoic Acid]
Kd [1]: < 1 nM | EC50 [2]: 4.47 nM
